Patent EP4782453A1 (Beyang Therapeutics Co., Ltd., priority 2023, dated 2025)
Read-outs that look alike come from different tables or passages of the source.

Molecular target: T1, Menin-MLL (Homo sapiens, UniProt O00255)
T1 construct: His-Menin (M1-L615 end); purchased BIORTUS BP9210
T1 sequence (O00255 1-615 isoform O00255-1): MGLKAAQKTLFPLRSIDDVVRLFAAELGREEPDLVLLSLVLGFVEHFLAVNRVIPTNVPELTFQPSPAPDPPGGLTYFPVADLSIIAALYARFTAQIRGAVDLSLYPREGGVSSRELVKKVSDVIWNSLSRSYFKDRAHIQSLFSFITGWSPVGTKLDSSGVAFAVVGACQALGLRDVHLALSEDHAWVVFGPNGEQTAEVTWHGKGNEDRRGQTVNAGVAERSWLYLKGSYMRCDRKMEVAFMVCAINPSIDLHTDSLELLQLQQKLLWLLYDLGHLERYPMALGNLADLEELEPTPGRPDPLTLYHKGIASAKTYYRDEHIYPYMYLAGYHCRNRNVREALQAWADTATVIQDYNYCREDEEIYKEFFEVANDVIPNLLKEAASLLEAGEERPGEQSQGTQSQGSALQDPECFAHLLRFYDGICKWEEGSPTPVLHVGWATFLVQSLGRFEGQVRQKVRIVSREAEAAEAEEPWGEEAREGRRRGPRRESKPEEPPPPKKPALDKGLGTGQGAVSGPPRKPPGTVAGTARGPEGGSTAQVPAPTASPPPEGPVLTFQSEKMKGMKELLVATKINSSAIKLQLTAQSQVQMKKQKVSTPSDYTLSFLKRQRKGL
Assay: Inhibitory activity against Menin-MLL binding (fluorescence polarization)
Conditions: 150 nM His-Menin, 15 nM FITC-MLL, 25°C for 60 min
Description: • His-Menin (M1-L615 end), purchased from BIORTUS, Catalog Number: BP9210; and • FITC-MLL4-43, purchased from GenScript, Catalog Number: C491HFF190-3/PE1324.
In a 10 µL reaction solution (20 mM HEPES, pH 7.5, 50 mM NaCl, 1 mM DTT, 0.01% BSA) containing any compound from the examples, 150 nM His-Menin was added to a 384-well plate (Corning, Model: 4514). Each concentration was set up in duplicate wells. After centrifugation at 1000 RPM for 1 min, the plate was incubated at 25°C for 15 min. Then, 15 nM […] (20 mM HEPES, pH 7.5, 50 mM NaCl, 1 mM DTT, 0.01% BSA) was added to a 384-well plate. After centrifugation at 1000 RPM for 1 min, the reaction proceeded at 25°C for 60 min. Changes in fluorescence polarization were measured using a plate reader (PerkinElmer, Envision 2104). Based on the measured signals, the binding inhibition rate of the compound at each concentration was calculated, and the IC50 (half-maximal inhibitory concentration) of the compound was determined using statistical analysis software GraphPad Prism (GraphPad Software, Inc.) by means of a nonlinear fitting formula: 4-Parameter Logistic Model or Sigmoidal Dose-Response Model: Y = Bottom + (Top−Bottom)/(1 + 10^((LogIC50−X) × Hill Slope)), [formula] in which X indicates the logarithm of compound concentration, Y indicates a fluorescence polarization mP value, and Top and Bottom indicate the maximum and minimum readouts of fluorescence polarization mP values. Table 1: Inhibitory Activity of Compounds Against Menin-MLL Binding

[1] = fluorescence polarization, read-out: Menin-MLL IC50
[2] = Menin-MLL IC50, fluorescence polarization

Work on `CCN(C(=O)c1cc(F)ccc1-c1cc(C2CN([C@H](CCCN3CC4CC(C3)N4C)C(C)C)C2)cn2c(C)ncc12)C(C)C` [Example 392] yielded an IC50 [1] of 0.002 µM.

Work on `Cc1ncc2c(-c3ccc(F)cc3C(=O)N3CCOC[C@H]3C)cc(C3CN([C@@H](CCCN4CCN(C)CC4)C(C)C)C3)cn12` [Example 323-1, (3R)-4-[5-fluoro-2-(3-methyl-6-{1-[(3S)-2-methyl-6-(4-methylpiperazin-1-yl)hexan-3-yl]azacyclobutan-3-yl}imidazo[1,5-a]pyridin-8-yl)benzoyl]-3-methylmorpholine] yielded an IC50 [1] of 0.179 µM.

In the case of `CCN(C(=O)c1cc(F)ccc1-c1cc(C2CN([C@H](CCCN3CCN(C4(CC#N)COC4)CC3)C(C)C)C2)cn2c(C)ncc12)C(C)C` [Example 490, 2-(6-{1-[(3R)-6-{4-[3-(cyanomethyl)oxacyclobutan-3-yl]piperazin-1-yl}-2-methylhexan-3-yl]azacyclobutan-3-yl}-3-methylimidazo[1,5-a]pyridin-8-yl)-N-ethyl-5-fluoro-N-(isopropyl)benzamide], the IC50 [1] is reported as 0.0029 µM.

`CCS(=O)(=O)N[C@H]1CC[C@H](CN2CCC(c3cc(-c4ccc(F)cc4C(=O)N(CC(F)F)C(C)C)c4cnc(C)cn34)CC2)CC1` [Example 154, N-(2,2-difluoroethyl)-5-fluoro-2-[3-methyl-6-(1-{[(1r,4r)-4-ethanesulfonamidocyclohexyl]methyl}piperidin-4-yl)pyrrolo[1,2-a]pyrazin-8-yl]-N-(isopropyl)benzamide] was tested, and the IC50 [2] was 0.166 µM.

`Cc1nc(F)c2c(-c3ccc(F)cc3C(=O)N3CCOC[C@H]3C)cc(C3CN([C@H](C)C4CCOCC4)C3)cn12` [Example 238-1, (3R)-4-[5-fluoro-2-(1-fluoro-3-methyl-6-{1-[(1R)-1-(oxacyclohexan-4-yl)ethyl]azacyclobutan-3-yl}imidazo[1,5-a]pyridin-8-yl)benzoyl]-3-methylmorpholine] gave an IC50 [1] of 0.08 µM.

For `CCN(C(=O)c1cc(F)ccc1-c1cc([C@H]2CCN(C[C@H]3CC[C@H](NS(=O)(=O)CC)CC3)C2)nc2c1cnn2C)C(C)C` [Example 11-2, N-ethyl-5-fluoro-2-{1-methyl-6-[(3S)-1-{[(1r,4r)-4-ethanesulfonamidocyclohexyl]methyl}pyrrolidin-3-yl]-1H-pyrazolo[3,4-b]pyridin-4-yl}-N-(isopropyl)benzamide], the IC50 [2] was 0.0655 µM.

For `CCN(C(=O)c1cc(F)ccc1-c1cc(C2CCN(C[C@H]3CC[C@H](NS(=O)(=O)CC)CC3)C2)cc2cnc(C)n12)C(C)C` (mixture of isomers) [Example 35, N-ethyl-5-fluoro-2-[3-methyl-7-(1-{[(1r,4r)-4-ethanesulfonamidocyclohexyl]methyl}pyrrolidin-3-yl)imidazo[1,5-a]pyridin-5-yl]-N-(isopropyl)benzamide], the IC50 [2] was 0.0395 µM.

Work on `CCOC(=O)N1CCN(CCC[C@H](C(C)C)N2CC(c3cc(-c4ccc(F)cc4C(=O)N(CC)C(C)C)c4cnc(C)n4c3)C2)CC1` [Example 471] yielded an IC50 [2] of 0.0048 µM.

`CCN(C(=O)c1cc(F)ccc1-c1cc(C2CN([C@H](C)C3CCN(C(=O)CO)CC3)C2)cn2c(C)nc(F)c12)C(C)C` [Example 284-1] was tested, and the IC50 [1] was 0.039 µM.

Work on `Cc1nc(F)c2c(-c3ccc(F)cc3C(=O)N3CCOC[C@H]3C)cc(C3CN([C@@H](CCCN4CCOCC4)C(C)C)C3)cn12` [Example 199-2, (3R)-4-[5-fluoro-2-(1-fluoro-3-methyl-6-{1-[(3S)-2-methyl-6-(morpholin-4-yl)hexan-3-yl]azacyclobutan-3-yl}imidazo[1,5-a]pyridin-8-yl)benzoyl]-3-methylmorpholine] yielded an IC50 [1] of 0.205 µM.

`CNC(=O)[C@H]1CC[C@H](CN2CC(c3cc(-c4ccc(F)cc4C(=O)N4CCOC[C@H]4C)c4c(F)nc(C)n4c3)C2)CC1` [Example 237, (1r,4r)-4-{[3-(1-fluoro-8-{4-fluoro-2-[(3R)-3-methylmorpholin-4-carbonyl]phenyl}-3-methylimidazo[1,5-a]pyridin-6-yl)azacyclobutan-1-yl]methyl}-N-methylcyclohexan-1-formamide] was tested, and the IC50 [2] was 0.034 µM.

`CCN(C(=O)c1cc(F)ccc1-c1cc(C2CN(C(CCCN3C[C@H]4C[C@@H]3CO4)C(C)C)C2)cc2c(C)ncn12)C(C)C` (stereo partly drawn) [Example 465, N-ethyl-5-fluoro-2-[1-methyl-7-(1-{2-methyl-6-[(1R,4R)-2-oxa-5-azabicyclo[2.2.1]heptan-5-yl]hexan-3-yl}azacyclobutan-3-yl)imidazo[1,5-a]pyridin-5-yl]-N-(isopropyl)benzamide] was tested, and the IC50 [1] was 0.0031 µM.

For `CCN(C(=O)c1cc(F)ccc1-c1cc(N2CCN(C(=O)[C@@H]3CCCN3)CC2)cn2c(C)nc(Cl)c12)C(C)C` [Example 114], the IC50 [1] was 0.019 µM.

`CCS(=O)(=O)N[C@@H]1CC[C@@H](CN2CC[C@@H](c3cc(-c4ccc(F)cc4C(=O)N(CC(F)F)C(C)C)c4cnc(C)n4c3)C2)OC1` [Example 163-1, N-(2,2-difluoroethyl)-2-{6-[(3S)-1-{[(2S,5R)-5-ethanesulfonamidooxacyclohexan-2-yl]methyl}pyrrolidin-3-yl]-3-methylimidazo[1,5-a]pyridin-8-yl}-5-fluoro-N-(isopropyl)benzamide] showed an IC50 [1] of 0.047 µM.

Work on `CCN(C(=O)c1cc(F)ccc1-c1cc(C2CN(C(CN3CCOCC3)C(C)C)C2)cn2c(C)ncc12)C(C)C` (stereo not drawn) [Example 439, N-ethyl-5-fluoro-2-(3-methyl-6-{1-[3-methyl-1-(morpholin-4-yl)butan-2-yl]azacyclobutan-3-yl}imidazo[1,5-a]pyridin-8-yl)-N-(isopropyl)benzamide] yielded an IC50 [1] of 0.021 µM.

With `COC[C@H]1CN(CCC[C@@H](C(C)C)N2CC(c3cc(-c4ccc(F)cc4C(=O)N(C(C)C)C(C)C)c4cnc(C)n4c3)C2)CCN1` [Example 504-1, 5-fluoro-2-(6-{1-[(3S)-6-[(3R)-3-(methoxymethyl)piperazin-1-yl]-2-methylhexan-3-yl]azacyclobutan-3-yl}-3-methylimidazo[1,5-a]pyridin-8-yl)-N,N-di(isopropyl)benzamide] the IC50 [1] was 0.017 µM.

For `CCN(C(=O)c1cc(F)ccc1-c1cc(C2CN([C@H](CCCN3CCN[C@@H](CF)C3)C(C)C)C2)cn2c(C)ncc12)C(C)C` [Example 500], the IC50 [1] was 0.0022 µM.

`CCN(C(=O)c1cc(F)ccc1-c1cc(C2CN(C(=O)C3NC4CCC3CC4)C2)cn2c(C)nc(Cl)c12)C(C)C` [Example 108, 2-(1-chloro-3-methyl-6-{1-[(1R,3S,4S)-2-azabicyclo[2.2.2]octan-3-carbonyl]azacyclobutan-3-yl}imidazo[1,5-a]pyridin-8-yl)-N-ethyl-5-fluoro-N-(isopropyl)benzamide] was tested, and the IC50 [2] was 0.0072 µM.

Work on `CCS(=O)(=O)N[C@H]1CC[C@H](CCN2CC(c3cc(-c4ccc(F)cc4C(=O)N4CCOC[C@H]4C)c4cnn(C)c4c3)C2)CC1` [Example 160] yielded an IC50 [1] of 0.062 µM.

In the case of `CCN(C(=O)c1cc(F)ccc1-c1cc(C2CN([C@H](CCCN3CCN(C)CC3)C(C)C)C2)cn2c(C)nnc12)C(C)C` [Example 360-1, N-ethyl-5-fluoro-2-(3-methyl-6-{1-[(3R)-2-methyl-6-(4-methylpiperazin-1-yl)hexan-3-yl]azacyclobutan-3-yl}-[1,2,4]triazolo[4,3-a]pyridin-8-yl)-N-(isopropyl)benzamide], the IC50 [1] is reported as 0.083 µM.

`CCN(C(=O)c1cc(F)ccc1-c1cc(C2(O)CN(C[C@H]3CC[C@H](NC(=O)OC(C)(C)C)CC3)C2)cc2c1cnn2C)C(C)C` [Example 79, N-[(1r,4r)-4-{[3-(4-{2-[ethyl(isopropyl)aminoformyl]-4-fluorophenyl}-1-methyl-1H-indazol-6-yl)-3-hydroxylazacyclobutan-1-yl]methyl}cyclohexyl]tert-butyl carbamate] was tested, and the IC50 [1] was 0.279 µM.
